Patent US5041636A, “Urea derivatives” (Wako Pure Chemical Industries, Ltd., priority 1986, dated 1991)
Structures can show the parent of a compound that is named as a salt.

Legend:
Format in all cases: physicochemical
[1] = Stability after color development (Table 1); parameters: key: A: stable; B: slightly unstable
Experimental: (§1) Various properties such as the stability of leuco dye solution, the stability after color developed, the maximum absorption wavelength (λmax), the sensitivity (ε) and the solubility in water of typical 14 examples of the urea derivatives of the formula (I) are shown in Table 1.
(§2) In Table 1, "A" means stable and "B" means slightly unstable in the evaluation of the stability of the leuco dye solution and the stability after color development. The solubility in water is evaluated as .circleincircle. highly soluble, soluble, and X hardly soluble.

[2] = Stability of leuco dye solution (Table 1); parameters: key: A: stable; B: slightly unstable
Experimental: as §1, §2

[3] = Maximum absorption wavelength (λmax) and sensitivity (ε) (Table 1); settings: at color development
Text: as §1

[4] = Solubility in water (Table 1)
Experimental: as §1, §2

Compound	Stability after color developed [1]	Stability of leuco dye soln. [2]	λmax [3] [nm]	Solubility in water [4]
Cc1ccc(S(=O)(=O)NC(=O)N(c2ccc(N(C)CO)cc2)c2ccc(N3CCCCC3)cc2)cc1 [(5)]	B	A	730	
CN(C)c1ccc(N(C(=O)NCCC2CCOCC2)c2ccc(N(C)CO)cc2)cc1 [(6)]	B	A	730	
CCCN(CCC)c1ccc2c(c1)Oc1cc(N(CCC)CCC)ccc1N2C(=O)NCC(=O)O [(11)]	B	A	666	.circleincircle
CCCN(CCC)c1ccc2c(c1)Sc1cc(N(CCC)CCC)ccc1N2C(=O)NCC(=O)O [(12)]	B	A	666	.circleincircle
CN(C)c1ccc2c(c1)Oc1cc(N(C)CC(=O)O)ccc1N2C(=O)NCC(=O)O [(13)]	B	B	666	.circleincircle
CN(C)c1ccc2c(c1)Sc1cc(N(C)CC(=O)O)ccc1N2C(=O)NCC(=O)O [(14)]	B	B	666	.circleincircle
CNC(=O)N(c1ccc(N(C)C)cc1)c1ccc(N(C)C)cc1 [(15), reference compound]	B	A	730	
CCCCNC(=O)N(c1ccc(N(C)C)cc1)c1ccc(N(C)C)cc1 [(16), reference compound]	B	A	730	
CNC(=O)N1c2ccc(N(C)C)cc2Sc2cc(N(C)C)ccc21 [(17), reference compound]	B	B	666	
CN(C)c1ccc(N(C(=O)NCC(=O)O)c2ccc(N(C)C)cc2)cc1 [Compound No. (1), sodium salt of N,N-bis(4-dimethylaminophenyl)-N'-carboxymethylurea]	B	A	730	.circleincircle
CN(C)c1ccc(N(C(=O)Nc2ccc(S(=O)(=O)O)cc2)c2ccc(N(C)C)cc2)cc1 [Compound No. (2), sodium salt of N, N-bis(4-dimethylaminophenyl)-N'-(4-sulfophenyl)urea]	B	A	730	.circleincircle
CCN(CC)c1ccc(N(C(=O)NS(=O)(=O)c2ccc(C)cc2)c2ccc(N(C)C)cc2C)c(C)c1 [Compound No. (7), N-(4-dimethylamino-2-methylphenyl)-N-(4'-diethylamino-2'-methylphenyl)-N'-(4-methylphenylsulfonyl)urea]	A	A	740	
CN(C)c1ccc2c(c1)Sc1cc(N(C)C)ccc1N2C(=O)NCC(=O)O [Compound No. (9), sodium salt of 10-(carboxymethylaminocarbonyl)-3,7-bis(dimethylamino)phenothiazine]	B	B	666	.circleincircle
CN(C)c1ccc2c(c1)Oc1cc(N(C)C)ccc1N2C(=O)NCC(=O)O [Compound No. (10), sodium salt of 10-(carboxymethylaminocarbonyl)-3,7-bis(dimethylamino)phenoxazine]	B	B	666	.circleincircle
